Literature values as cited in US7608286B2, “Phyto-nutraceutical synergistic composition for hyperlipedemic condition” (priority 2006, dated 2009).

Tests used:
[1] = target: T1, lanosterol 14alpha -demethylase (Homo sapiens, UniProt Q16850)
T1 sequence (Q16850 1-509): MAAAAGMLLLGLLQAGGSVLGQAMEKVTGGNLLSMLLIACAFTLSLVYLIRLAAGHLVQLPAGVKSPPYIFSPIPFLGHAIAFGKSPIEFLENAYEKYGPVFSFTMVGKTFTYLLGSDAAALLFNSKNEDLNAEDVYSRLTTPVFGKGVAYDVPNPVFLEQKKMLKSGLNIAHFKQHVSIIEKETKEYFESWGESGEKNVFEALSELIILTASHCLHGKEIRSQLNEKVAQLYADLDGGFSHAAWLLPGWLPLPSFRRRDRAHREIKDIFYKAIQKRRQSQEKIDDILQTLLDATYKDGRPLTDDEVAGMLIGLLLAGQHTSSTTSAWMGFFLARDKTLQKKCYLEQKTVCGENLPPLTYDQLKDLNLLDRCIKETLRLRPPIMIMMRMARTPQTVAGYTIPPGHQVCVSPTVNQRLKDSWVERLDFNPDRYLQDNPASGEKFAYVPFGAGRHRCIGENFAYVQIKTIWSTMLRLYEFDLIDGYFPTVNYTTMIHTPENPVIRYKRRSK

[2] = test system: bacterial resistance mechanism (multidrug pump); details: in the presence of 5′-MHC
rats = details: rat, in vivo
[3] = test system: apolipoprotein E-null mice; details: evolving versus established
[4] = test system: cultured human liver (HepG2) cells
[5] = test system: participants having low blood concentrations of HDL-C; details: time-release
[6] = test system: normolipidemic and hyperlipidemic patients with low HDL-C levels; details: low dose (1.5 g/d)

## C/C(=C\CC[C@@H](C)[C@H]1CC[C@@]2(C)C3=CC[C@H]4C(C)(C)[C@@H](O)CC[C@]4(C)C3=CC[C@]12C)CO [ganoderol B]
[1]
  cholesterol biosynthesis / lanosterol 14alpha -demethylase: inhibit cholesterol biosynthesis

## COc1cc([C@H]2Oc3cc(-c4cc(=O)c5c(O)cc(O)cc5o4)cc(OC)c3O[C@@H]2CO)ccc1O (racemic) [5′-MHC, 5′-methoxyhydnocarpin]
[2]
  accumulation of berberine in the cells: strong increase

## C/C(C=O)=C\CC[C@@H](C)[C@H]1CC[C@@]2(C)C3=CC[C@H]4C(C)(C)C(=O)CC[C@]4(C)C3=CC[C@]12C [ganoderal A]
[1]
  cholesterol biosynthesis / lanosterol 14alpha -demethylase: inhibit cholesterol biosynthesis

## Nc1ncnc2c1ncn2C[C@@H](O)[C@@H](O)C(=O)O [Eritadenine]
rats
  S-adenosylmethionine (SAM):S-adenosylhomocysteine (SAH) ratio in the liver: significantly decreased
  phosphatidylcholine (PC):phosphatidylethanolamine ratio in liver microsomes: significantly decreased
  plasma cholesterol concentration: significantly decreased

## (−)-epigallocatechin gallate [EGCG]
[3]
  atherosclerotic lesions: differentially reduces evolving atherosclerotic lesions without influencing established atherosclerosis
[4]
  cellular cholesterol concentration lowered: 28%
  cellular cholesterol synthesis: significantly lowered
  increase of LDL receptor binding activity: 3 fold

## O=C(O)c1cccnc1 [nicotinic acid, Nicotinic acid]
[5]
  change of total cholesterol concentrations: -20 mg/dL
  decrease of low-density lipoprotein cholesterol levels: 13%
  decrease of the ratio of total cholesterol to HDL-C: 25%
  decrease of total cholesterol concentrations: 9%
  decrease of triglyceride levels: 20%
  mean change of HDL-C levels: +6 mg/dl
  mean increase of HDL-C levels: 18%
[6]
  average increase in HDL-C levels: 20%
  triglyceride levels: significantly lowers

## ganoderic acid
[1]
  cholesterol biosynthesis / lanosterol 14alpha -demethylase: inhibit cholesterol biosynthesis

## C/C(=C\CC[C@@H](C)[C@H]1CC[C@@]2(C)C3=CC[C@H]4C(C)(C)C(=O)CC[C@]4(C)C3=CC[C@]12C)CO [ganoderol A]
[1]
  cholesterol biosynthesis / lanosterol 14alpha -demethylase: inhibit cholesterol biosynthesis
